Measurements reported in patent US8962602B2, “Anticancer steroidal lactones unsaturated in position 7 (8)” (Pharma Mar, S.A., priority 2010, dated 2015).
Where “and” joins values, the source holds several entries; their conditions need not be identical. Identical values can stand only once. Like-named read-outs stand apart in the source and are kept apart here.

Tests used:
Assay in all cases: Cytotoxicity assay, SRB colorimetric assay
Type in all cases: cell-based
A549 = conditions: for TGI / GI50: A549 lung carcinoma (NSCLC), 72 hours treatment; for TGI: total cell growth inhibition (cytostatic effect); for GI50 / CC50: Homo sapiens, A549, 72 h; for GI50: 50% cell growth inhibition; for CC50: read-out: LC50, A549 lung carcinoma (NSCLC), 72 hours treatment, 50% net cell killing (cytotoxic effect)
From the text: (§1) The aim of this assay is to evaluate the in vitro cytostatic (ability to delay or arrest tumor cell growth) or cytotoxic (ability to kill tumor cells) activity of the samples being tested.
(§2) A colorimetric assay, using sulforhodamine B (SRB) reaction has been adapted to provide a quantitative measurement of cell growth and viability (following the technique described by Skehan et al. J. Natl. Cancer Inst. 1990, 82, 1107-1112).
(§3) This form of assay employs SBS-standard 96-well cell culture microplates (Faircloth et al. Methods in Cell Science, 1988, 11(4), 201-205; Mosmann et al, Journal of Immunological Methods, 1983, 65(1-2), 55-63). All the cell lines used in this study were obtained from the American Type Culture Collection (ATCC) and derive from different types of human cancer.
(§4) Cells were maintained in Dulbecco's Modified Eagle Medium (DMEM) supplemented with 10% Fetal Bovine Serum (FBS), 2 mM L-glutamine, 100 U/mL penicillin and 100 U/mL streptomycin at 37° C., 5% CO2 and 98% humidity. For the experiments, cells were harvested from subconfluent cultures using trypsinization and resuspended in fresh medium before counting and plating.
(§5) Cells were seeded in 96 well microtiter plates, at 5×10^3 cells per well in aliquots of 150 μL, and allowed to attach to the plate surface for 18 hours (overnight) in drug free medium. After that, one control (untreated) plate of each cell line was fixed (as described below) and used for time zero reference value. Culture plates were then treated with test compounds (50 μL aliquots of 4× stock solutions in complete culture medium plus 4% DMSO) using ten serial dilutions (concentrations ranging from 10 to 0.00262 μg/mL) and triplicate cultures (1% final concentration of DMSO). After 72 hours treatment, the antitumor effect was measured by using the SRB methodology: Briefly, cells were washed twice with PBS, fixed for 15 min in 1% glutaraldehyde solution at room temperature, rinsed twice in PBS, and stained in 0.4% SRB solution for 30 min at room temperature. Cells were then rinsed several times with 1% acetic acid solution and air-dried at room temperature. SRB was then extracted in 10 mM trizma base solution and the absorbance measured in an automated spectrophotometric plate reader at 490 nm. Effects on cell growth and survival were estimated by applying the NCl algorithm (Boyd M R and Paull K D. Drug Dev. Res. 1995, 34, 91-104).
(§6) Using the mean±SD of triplicate cultures, a dose-response curve was automatically generated using nonlinear regression analysis. Three reference parameters were calculated (NCI algorithm) by automatic interpolation: GI50=compound concentration that produces 50% cell growth inhibition, as compared to control cultures; TGI=total cell growth inhibition (cytostatic effect), as compared to control cultures, and LC50=compound concentration that produces 50% net cell killing (cytotoxic effect).

HT29 = conditions: for TGI: total cell growth inhibition (cytostatic effect); for GI50: 50% cell growth inhibition
From the text: as §1, §2, §3, §4, §5, §6

MDA-MB-231 = conditions: for GI50: 50% cell growth inhibition; for TGI: total cell growth inhibition (cytostatic effect)
From the text: as §1, §2, §3, §4, §5, §6

[1] = HT29 colorectal adenocarcinoma, 72 hours treatment
[2] = Homo sapiens, HT-29, 72 h, HT29 colorectal adenocarcinoma, 72 hours treatment
[3] = Homo sapiens, HT-29, 72 h, read-out: LC50, HT29 colorectal adenocarcinoma, 72 hours treatment, 50% net cell killing (cytotoxic effect)
[4] = Homo sapiens, MDA-MB-231, 72 h, MDA-MB-231 breast adenocarcinoma, 72 hours treatment
[5] = Homo sapiens, MDA-MB-231, 72 h, read-out: LC50, MDA-MB-231 breast adenocarcinoma, 72 hours treatment, 50% net cell killing (cytotoxic effect)
[6] = MDA-MB-231 breast adenocarcinoma, 72 hours treatment

Row | SMILES | TGI (A549) | GI50 (A549) | CC50 (A549) | TGI (HT29; [1]) | GI50 (HT29; [2]) | LC50 (50% net cell killing) (HT29; [3]) | GI50 (MDA-MB-231; [4]) | CC50 (MDA-MB-231; [5]) | TGI (MDA-MB-231; [6]) | GI50 (HT29; [1]) | LC50 (50% net cell killing) (HT29; read-out: LC50, HT29 colorectal adenocarcinoma, 72 hours treatment, 50% net cell killing (cytotoxic effect)) | GI50 (MDA-MB-231; [6]) | CC50 (MDA-MB-231; read-out: LC50, MDA-MB-231 breast adenocarcinoma, 72 hours treatment, 50% net cell killing (cytotoxic effect))
1 | CO[C@H]1[C@H]2O[C@H]2[C@]2(CO)[C@H]3CC[C@]4(C)[C@@H](c5ccc(=O)oc5)C(Cl)(Cl)C[C@]4(O)C3=CC[C@H]2C1(C)C [Aegomycin B] | 7.61E−9 Molar | 5.9 nM | 11.4 nM | 2.28E−7 Molar | 30.4 nM | 3040 nM | 76.1 nM | 381 nM | 1.67E−7 Molar | – | – | – | –
2 | CO[C@H]1C=C[C@]2(C)[C@H]3C[C@@H](O)[C@]4(C)[C@@H](c5ccc(=O)oc5)C(Cl)(Cl)C[C@]4(O)C3=CC[C@H]2C1(C)C [Aegomycin D] | 1.28E−8 Molar | 8.64 nM | 18.3 nM | 1.35E−7 Molar | 31.4 nM | 1450 nM | 64.8 nM | 173 nM | 9.81E−8 Molar | – | – | – | –
3 | CO[C@H]1C=C[C@]2(C)[C@H]3CC[C@]4(C)[C@@H](c5ccc(=O)oc5)[C@@H](Cl)C[C@]4(O)C3=CC[C@H]2C1(C)C [Aegomycin G] | 6.32E−8 Molar | 39.2 nM | 111 nM | 6.75E−7 Molar | 146 nM | 3920 nM | 170 nM | 1290 nM | 4.36E−7 Molar | – | – | – | –
4 | CC1(C)C(=O)C=C[C@]2(C)[C@H]3CC[C@]4(C)[C@@H](c5ccc(=O)oc5)[C@@H](Cl)C[C@]4(O)C3=CC[C@@H]12 [Aegomycin F] | – | – | – | 4.06E−7 Molar and 2.03E−7 Molar | 65.5 nM | 3160 nM | 88 nM | 948 nM | 2.71E−7 Molar and 2.03E−7 Molar | 36.5 nM | 4860 nM | 81.1 nM | 608 nM
5 | CC1(C)C(=O)C=C[C@]2(C)[C@H]3CC[C@]4(C)[C@@H](c5ccc(=O)oc5)C(Cl)(Cl)C[C@]4(O)C3=CC[C@@H]12 [Aegomycin C] | 1.72E−8 Molar | 7.54 nM | 41.9 nM | 1.05E−7 Molar | 9.84 nM | > 20900 nM | 62.8 nM | 691 nM | 1.97E−7 Molar | – | – | – | –
6 | CO[C@H]1C=C[C@]2(C)[C@H]3CC[C@]4(C)[C@@H](c5ccc(=O)oc5)C(Cl)(Cl)C[C@]4(O)C3=CC[C@H]2C1(C)C [Aegomycin E] | 5.67E−8 Molar | 42.6 nM | 75 nM | 4.86E−7 Molar | 118 nM | 5270 nM | 197 nM | 750 nM | 3.65E−7 Molar | – | – | – | –
7 | CO[C@H]1[C@H]2O[C@H]2[C@]2(C=O)[C@H]3CC[C@]4(C)[C@@H](c5ccc(=O)oc5)C(Cl)(Cl)C[C@]4(O)C3=CC[C@H]2C1(C)C [Aegomycin A] | 4.39E−9 Molar | 3.82 nM | 5.35 nM | 3.25E−8 Molar | 10.5 nM | 115 nM | 19.1 nM | 61.1 nM | 3.63E−8 Molar | – | – | – | –
